# Experimental data published in the RepoRT retention time repository.
# Experiment: HILIC, Waters ACQUITY UPLC BEH Amide, 100 × 2.1 mm, 1.7 µm; A: water + 0.125% formic acid + 10 mM ammonium formate; B: 5% water + 95% acetonitrile + 0.125% formic acid + 10 mM ammonium formate; gradient (min/%B) 0/100 2/100 7.7/70 9.5/40 10.25/30 12.75/100 17/100
# Settings: stereoisomer not certain
row,LC retention time,SMILES
1,2.01 min,O=C(O)c1cc(N=Nc2ccc(S(=O)(=O)Nc3ccccn3)cc2)ccc1O [Sulfasalazine]
2,4.31 min,CNS(=O)(=O)Cc1ccc2[nH]cc(CCN(C)C)c2c1 [Sumatriptan]
3,4.32 min,COc1cc(-c2oc3cc(O)cc(O)c3c(=O)c2OC2OC(CO)C(O)C(O)C2O)cc(OC)c1O (stereo unspecified) [Syringetin-3-O-glucoside]
4,1.35 min,COc1cc(C(=O)O)cc(OC)c1O [Syringic acid]
5,7.7 min,O=S(=O)(O)CCNC(CO)(CO)CO [TES]
6,3.86 min,Nc1c2c(nc3ccccc13)CCCC2 [Tacrine]
7,1.07 min,C=CCC1C=C(C)CC(C)CC(OC)C2OC(O)(C(=O)C(=O)N3CCCCC3C(=O)OC(C(C)=CC3CCC(O)C(OC)C3)C(C)C(O)CC1=O)C(C)CC2OC (stereo unspecified) [Tacrolimus]
8,1.19 min,CN1CC(=O)N2C(Cc3c([nH]c4ccccc34)C2c2ccc3c(c2)OCO3)C1=O (stereo unspecified) [Taldalafil]
9,9.22 min,CN=C(N)NCCCC(N)C(=O)O (stereo unspecified) [Targinine]
10,7.85 min,NCCS(=O)(=O)O [Taurine]
11,6.12 min,CC(CCC(=O)NCCS(=O)(=O)O)C1CCC2C3C(O)CC4CC(O)CCC4(C)C3CC(O)C12C (stereo unspecified) [Taurocholic acid]
12,1.78 min,O=C1c2c(O)cc(O)cc2OC(c2ccc(O)c(O)c2)C1O (stereo unspecified) [Taxifolin]
13,1.22 min,O=c1[nH]c(=O)n(C2CCCO2)cc1F (stereo unspecified) [Tegafur]
14,2.84 min,CCCCCN=C(N)NN=Cc1c[nH]c2ccc(OC)cc12 [Tegaserod]
15,1.25 min,CCCc1nc2c(C)cc(-c3nc4ccccc4n3C)cc2n1Cc1ccc(-c2ccccc2C(=O)O)cc1 [Telmisartan]
16,1.33 min,Cn1nnc2c(C(N)=O)ncn2c1=O [Temozolomide]
17,4.66 min,COc1cc2nc(N3CCN(C(=O)C4CCCO4)CC3)nc(N)c2cc1OC (stereo unspecified) [Terazosin]
18,1.33 min,CN(CC=CC#CC(C)(C)C)Cc1cccc2ccccc12 [Terbinafine]
19,7.66 min,CCNC(=O)CCC(N)C(=O)O (stereo unspecified) [Theanine]
20,1.54 min,Cn1c(=O)c2[nH]cnc2n(C)c1=O [Theophylline]
21,6.92 min,O=C(O)C1CSCN1 (stereo unspecified) [Thiazolidine-4-carboxylic acid]
22,5.23 min,N=c1ccc2nc3ccc(N)cc3sc-2c1 [Thionin]
23,8.56 min,CC(NC(=O)C(N)C(C)O)C(=O)O (stereo unspecified) [Thr-Ala]
24,1.56 min,OCC(O)C(O)CO (stereo unspecified) [Threitol]
25,2.57 min,Cc1cn(C2CC(O)C(CO)O2)c(=O)[nH]c1=O (stereo unspecified) [Thymidine]
26,1.53 min,Cc1ccc(C(C)C)c(O)c1 [Thymol]
27,3.94 min,Cc1ccsc1C(=CCCN1CCCC(C(=O)O)C1)c1sccc1C (stereo unspecified) [Tiagabine]

row,LC retention time,SMILES
1,1 min,C#CC1(O)CCC2C3C(C)CC4=C(CCC(=O)C4)C3CCC21C (stereo unspecified) [Tibolone]
2,1.12 min,Clc1ccccc1CN1CCc2sccc2C1 [Ticlopidine]
3,1.04 min,CCS(=O)(=O)CCn1c([N+](=O)[O-])cnc1C [Tinidazole]
4,4.97 min,Cc1cccc(C)c1NC(=O)C(C)N (stereo unspecified) [Tocainide]
5,2.13 min,Cc1ccc(O)c(C(CCN(C(C)C)C(C)C)c2ccccc2)c1 (stereo unspecified) [Tolterodine]
6,1.04 min,CCCc1c(OCCCCc2nn[nH]n2)ccc(C(C)=O)c1O [Tomelukast]
7,1.1 min,CC1(C)OC2COC3(COS(N)(=O)=O)OC(C)(C)OC3C2O1 (stereo unspecified) [Topiramate]
8,5.72 min,CCC1(O)C(=O)OCc2c1cc1n(c2=O)Cc2cc3c(CN(C)C)c(O)ccc3nc2-1 (stereo unspecified) [Topotecan]
9,1.29 min,O=C(c1ccccc1)c1ccc2n1CCC2C(=O)O (stereo unspecified) [Toradol]
10,1.45 min,Cc1cccc(Nc2ccncc2S(=O)(=O)NC(=O)NC(C)C)c1 [Torasemide]
11,1.89 min,CN(C)CCOc1ccc(C(=C(CCCl)c2ccccc2)c2ccccc2)cc1 [Toremifene]
12,4.87 min,NC1CCN(c2nc3c(cc2F)c(=O)c(C(=O)O)cn3-c2ccc(F)cc2F)C1 (stereo unspecified) [Tosufloxacin]
13,1.26 min,COc1ccc(C=CC(=O)Nc2ccccc2C(=O)O)cc1OC [Tranilast]
14,2.38 min,O=c1n(CCCN2CCN(c3cccc(Cl)c3)CC2)nc2ccccn12 [Trazodone]
15,9.72 min,O=P(O)(O)OCC1OC(OC2OC(CO)C(O)C(O)C2O)C(O)C(O)C1O (stereo unspecified) [Trehalose-6-phosphate]
16,1.51 min,O=C(OC1C(Oc2ccccc2COC(=O)C2(O)C=CCCC2=O)OC(CO)C(O)C1O)c1ccccc1 (stereo unspecified) [Tremulacin]
17,1.01 min,CSc1nc2cc(Oc3cccc(Cl)c3Cl)c(Cl)cc2[nH]1 [Triclabendazole]
18,2.15 min,CN1CCN(CCCN2c3ccccc3Sc3ccc(C(F)(F)F)cc32)CC1 [Trifluoperazine]
19,1.13 min,NC(=O)N1c2ccccc2CC(=O)c2ccccc21 [Trileptal]
20,2.25 min,CC(CN(C)C)CN1c2ccccc2CCc2ccccc21 (stereo unspecified) [Trimipramine]
21,1.98 min,CN(C)CCN(Cc1ccccc1)c1ccccn1 [Tripelennamine]
22,3.81 min,CN1C2CCC1CC(OC(=O)c1c[nH]c3ccccc13)C2 (stereo unspecified) [Tropisetron]
23,5.04 min,COc1cc(C(=O)NC2CCCNC2)cc(OC)c1OC (stereo unspecified) [Troxipide]
24,6.92 min,NC(Cc1c[nH]c2ccccc12)C(=O)O (stereo unspecified) [Tryptophan]
25,5.91 min,NC(=O)C(N)Cc1c[nH]c2ccccc12 (stereo unspecified) [Tryptophanamide]
26,7.38 min,NC(Cc1ccc(O)cc1)C(=O)NC(Cc1ccc(O)cc1)C(=O)O (stereo unspecified) [Tyr-Tyr]
27,7.61 min,NC(Cc1ccc(O)cc1)C(=O)O (stereo unspecified) [Tyrosine]

row,SMILES,LC retention time
1,CS(=O)CCCCN=C=S (stereo unspecified) [Sulforaphane],1.14 min
2,CNCC(O)c1ccc(O)cc1 (stereo unspecified) [Synephrine],5.67 min
3,CN1C(=O)C(O)N=C(c2ccccc2)c2cc(Cl)ccc21 (stereo unspecified) [Temazepam],1.15 min
4,CC12CCC(=O)C=C1CCC1C2CCC2(C)C(O)CCC12 (stereo unspecified) [Testosterone],1.05 min
5,COc1cccc(C2(O)CCCCC2CN(C)C)c1 (stereo unspecified) [Tramadol],2.52 min
6,Cc1nnc2n1-c1ccc(Cl)cc1C(c1ccccc1Cl)=NC2 [Triazolam],1.3 min
7,CCC(COC(=O)c1cc(OC)c(OC)c(OC)c1)(c1ccccc1)N(C)C (stereo unspecified) [Trimebutine],1.47 min
8,CC(C)C12OC1C1OC13C1(C)CCC4=C(COC4=O)C1CC1OC13C2O (stereo unspecified) [Triptolide],1.02 min
9,NCCc1c[nH]c2ccccc12 [Tryptamine],6.92 min
10,c1ccc2c3c([nH]c2c1)CNCC3 [Tryptoline],4.9 min
11,NC(Cc1ccc(O)cc1)C(=O)NC(Cc1ccc(O)cc1)C(=O)NC(Cc1ccc(O)cc1)C(=O)O (stereo not drawn) [Tyr-Tyr-Tyr],7.09 min
12,NCCc1ccc(O)cc1 [Tyramine],5.58 min
